# Measured values reported in publication PMC10447463, “Data-mining unveils structure–property–activity correlation of viral infectivity enhancing self-assembling peptides” (Nature Communications, 2023).
# Like-named read-outs stand apart in the source and are kept apart here.
# Columns and labels:
# [1] = Turbidity, derived count rate of scattered light; assay type: physicochemical; settings: for Count Rate: derived count rate of scattered light (turbidity); for Log10 Count Rate: turbidity, derived count rate of scattered light, data of Figure 2D
# [2] = Turbidity, derived count rate of scattered light; assay type: physicochemical; settings: for Count Rate / kcps: derived count rate of scattered light at 633 nm, 173°, from zeta-potential measurement, 0.1 mg/mL in 1 mM KCl after 1 d at 1 mg/mL in PBS, turbidity / microscopic aggregation, mean of triplicate
# Summary of the method: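 One-day room-temperature aggregation at 1 mg/mL in PBS (pH 7.4) preceded measurement; samples then went into 1 mM KCl. Triplicates per sample, two independent experiments averaged.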
# [3] = Zeta-potential measurement; assay type: physicochemical
# Summary of the method: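 PBS pH 7.4, 1 mg/mL peptide (DMSO stock), 1 d RT aggregation; diluted in 1 mM KCl pre-read; mobility → zeta (Smoluchowski); n = 3, 2 expts averaged.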
# [4] = tested on: HIV-1 infection of TZM-bl cells; assay: HIV-1 infectivity enhancement assay, β-galactosidase luminescence; assay type: cell-based; settings: for Rel-EFC: infection relative to EF-C (QCKIKQIINMWQ = 1); for Log10 Infection Rel EFC: log10 of infection relative to EF-C; for Log Infectivity: Log10 infection relative to EF-C, TZM-bl cells, asymmetric std dev errors; for Log10 Infection Rel EF-C: HIV-1 infection of TZM-bl cells; for Log10 Inf. rel. to EF-C: log10 of HIV-1 infection of TZM-bl cells relative to EF-C (EF-C = 0); for Abs. Inf.: absolute infection signal, HIV-1 on TZM-bl cells, β-galactosidase luminescence; for Log10 of Rel to EFC (Feb2021): Log10 of infection relative to EF-C
# [5] = Log10 of derived count rate of scattered light (turbidity)
# [6] = turbidity, Log10 of derived count rate of scattered light, Figure 3A source data
# [7] = turbidity, log10 of derived count rate of scattered light
# [8] = zeta potential of peptide assemblies
# [9] = zeta-potential of peptide, source data of Figure 2C
# [10] = zeta-potential of the peptide assemblies, mean, Figure 3A source data
# [11] = Fig. S7 panel A (plotted against β-sheet content)
# [12] = Fig. S7 panel B (plotted against CR), rounded to two decimals
# [13] = Log10 of infection rate relative to EF-C, Figure 3A source data
# [14] = infection rate relative to EF-C, log10, data of Figure 2D
# [15] = infection rate relative to EF-C, log10, source data of Figure 2C
# [16] = logarithm of count rate in kcps
Substance,Count Rate [1],Log10 Count Rate [1],"Log10 Count Rate [2, 5]",Count Rate / kcps [2],"Log10 Count Rate [2, 6]","Log10 Count Rate [2, 7]","Zeta-Pot. [3, 8]","Zeta-Potential / mV [3, 9]","Zeta-Potential / mV [3, 10]",Rel-EFC ([4]; 1.3 µM peptide),Log10 Infection Rel EFC ([4]; 1.3 µM peptide),"Log Infectivity [4, 11]","Log Infectivity [4, 12]","Log10 Infection Rel EF-C [4, 13]","Log10 Infection Rel EF-C [4, 14]","Log10 Infection Rel EF-C [4, 15]",Log10 Inf. rel. to EF-C [4],Zeta-Pot. [3],Abs. Inf. [4],other results
KAKAQA,20.93,1.321,1.321,21 kcps,1.321,1.321,-14.08,-10.04 mV,-14.08 mV,"0,02","-1,74",-1.743,-1.74,-1.74,-1.743,-1.743,-1.743,,,"Abs. Infection at 0.26 µM ([4]; peptide 0.26 µM, mean of n = 3, Figure 4A): 100; Infect 1 0.26 µM ([4]; peptide 0.26 µM, replicate 1, absolute infection signal, Figure 4A): -23.33; Infect 2 0.26 µM ([4]; peptide 0.26 µM, replicate 2, absolute infection signal, Figure 4A): 166.67; Infect 3 0.26 µM ([4]; peptide 0.26 µM, replicate 3, absolute infection signal, Figure 4A): 156.67; Abs. Infection at 1.3 µM ([4]; peptide 1.3 µM, mean of n = 3, Figure 4A): 146.7; Infect 1 .3 µM ([4]; peptide 1.3 µM, replicate 1, absolute infection signal, Figure 4A): 126.67; Infect 2 1.3µM ([4]; peptide 1.3 µM, replicate 2, absolute infection signal, Figure 4A): 46.67; Infect 3 1.3 µM ([4]; peptide 1.3 µM, replicate 3, absolute infection signal, Figure 4A): 266.67"
KAKAQANMWQ,56.17,1.749,1.749,56 kcps,1.749,1.749,,-14.675 mV,-19.63 mV,"0,01","-2,15",-2.146,-2.15,-2.15,-2.146,-2.146,-2.146,-19.63,193.3,"Log10 Count Rate [2, 16]: 1.7; Zeta pot. / mV ([3]; 1 mg/mL in PBS pH 7.4 from 10 mg/mL DMSO stock, 1 d RT, 60 µL diluted in 600 µL 1 mM KCl, Zetasizer Nano ZS, Smoluchowski, mean of triplicate): -19.6 mV; Inf. rel. EF-C ([4]; HIV-1 infection relative to EF-C, Fig 23 plot, panels A and B, mean of 3 values): 0.008469; Inf. rel. EF-C ([4]; HIV-1 infection relative to EF-C, Fig 23 plot, single data point, replicate 1): 0.01122; Inf. rel. EF-C ([4]; HIV-1 infection relative to EF-C, Fig 23 plot, single data point, replicate 2): 0.003015; Inf. rel. EF-C ([4]; HIV-1 infection relative to EF-C, Fig 23 plot, single data point, replicate 3): 0.01117; Abs. Inf. / RLU s-1 ([4]; absolute infection rate, peptide 1.3 µM on cells, virus preincubated 10 min with fibrils, read 3 days post infection, mean of triplicate): 193 RLU s-1; Inf. rel. EF-C ([4]; n-fold infection vs virus only, relative to that of EF-C, 1.3 µM peptide): 0.01"
KAKQAANMWQ,690.5,2.839,2.839,690 kcps,2.839,2.839,,-8.433 mV,-12.9 mV,"0,03","-1,51",-1.514,,-1.51,-1.514,-1.514,-1.514,-12.9,343.3,
KFKFQF,183.4,2.263,2.263,183 kcps,2.263,2.263,-11.03,-8.745 mV,-11.03 mV,"0,06","-1,21",-1.213,-1.21,-1.21,-1.213,-1.213,-1.213,,,
KFKFQFNMWQ,734.6,2.866,2.866,735 kcps,2.866,2.866,,24.38 mV,25.4 mV,"0,76","-0,12",-0.1164,-0.12,-0.12,-0.1164,-0.1164,-0.1164,25.4,20676.66667,"Log10 Count Rate [2, 16]: 2.866; Log10 of Rel to EFC (Feb2021) ([4]; all peptides of FigS16): -0.12"
KFKQFFNMWQ,236.9,2.375,2.375,237 kcps,2.375,2.375,,-2.615 mV,-3.43 mV,"0,09","-1,05",-1.0494,,-1.05,-1.0494,-1.0494,-1.0494,-3.43,1000,
KIKIKIKIYYYY,9918,3.996,3.996,9918 kcps,3.996,3.996,13.3,14.07 mV,13.3 mV,"1,38","0,14",0.1402,,0.14,0.1402,0.1402,0.1402,,,"Zeta Count Rate ([2]; peptides with TEM 2cat 0): 9918 kcp; Log10 of Rel to EFC (Feb2021) ([4]; all peptides of FigS16): 0.14; Log10 of Rel to EFC (Feb2021) ([4]; second listing, peptides with TEM 2cat 0): 0.14"
KIKIQI,108.3,2.035,2.035,108 kcps,2.035,2.035,-5.63,-2.515 mV,-5.63 mV,"0,07","-1,17",-1.169,-1.17,-1.17,-1.169,-1.169,-1.169,,,
